Molecular target: T1, 12-lipoxygenase (Sus scrofa, UniProt P16469)
T1 construct: porcine Leukocyte cytosol in buffer; from tissue; host or cells: porcine leukocyte cytosol
T1 sequence (P16469 1-663): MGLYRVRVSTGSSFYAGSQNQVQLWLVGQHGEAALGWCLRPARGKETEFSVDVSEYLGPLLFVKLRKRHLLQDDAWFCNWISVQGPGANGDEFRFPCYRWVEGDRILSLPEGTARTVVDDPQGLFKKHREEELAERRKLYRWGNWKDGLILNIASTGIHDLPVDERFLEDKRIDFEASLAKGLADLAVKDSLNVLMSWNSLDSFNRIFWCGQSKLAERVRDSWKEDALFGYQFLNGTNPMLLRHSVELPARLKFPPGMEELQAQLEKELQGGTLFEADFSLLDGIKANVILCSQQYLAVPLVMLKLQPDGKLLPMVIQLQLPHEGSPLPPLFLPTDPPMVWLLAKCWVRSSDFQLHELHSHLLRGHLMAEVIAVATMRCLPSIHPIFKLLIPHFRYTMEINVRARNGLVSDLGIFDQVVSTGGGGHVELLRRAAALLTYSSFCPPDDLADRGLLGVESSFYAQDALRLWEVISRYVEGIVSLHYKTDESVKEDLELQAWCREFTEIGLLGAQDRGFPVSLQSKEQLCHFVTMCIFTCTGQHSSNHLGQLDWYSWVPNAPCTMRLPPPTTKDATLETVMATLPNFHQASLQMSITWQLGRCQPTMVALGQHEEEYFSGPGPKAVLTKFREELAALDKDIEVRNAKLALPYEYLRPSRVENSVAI
Test: 12-lipoxygenase inhibition in porcine leukocyte cytosol ([1-14C] arachidonic acid conversion to 12-HETE, TLC)
Type: biochemical
Conditions: porcine leukocyte cytosol 0.075 mg/mL, pH 8.0, 5 min preincubation, 5 μM arachidonic acid, 15 min at 37° C.
Method: The standard assay procedure is as follows:
Compounds of the present invention were added in 3 μL of DMSO at an appropriate concentration to porcine Leukocyte cytosol in buffer (final protein concentration of 0.075 mg/mL in 0.1M HEPES, 2 mM caCl2, 1 mM MgCl2, pH=8.0) and preincubated for 5 min at 37° C. [1-^14 C] arachidonic acid was added (final concentration of 5 μM) and the reactions were incubated for 15 min at 37° C. and terminated by the addition of HCl. Total reaction volume was 100 μL. Assays also included reduced glutathione in the assay at 25 μM or following the assay at 1 mM and/or cold carrier 12-HETE and arachidonic acid added at the end of the incubation at concentrations of 5 and 100 μM, respectively. Sample was extracted with water-saturated ethyl acetate and the extracts were spotted onto TLC plates. The plates were developed with dichloromethane/ethyl acetate/acetic acid in a ratio of 70:30:1. Under these conditions, the Rf's of 12-HETE and arachidonic acid are 0.30 and 0.45 , respectively. The percentage conversion to 12-HETE was calculated from the percentage of the total ^14 C on the TLC plate that coelutes with a standard of 12-HETE.

Structure (SMILES) | IC50 [µM]
CCCCCCCC[C@H]1C[C@H](c2ccccc2)CC(=O)N1O (relative stereo) [1(a), trans-1-hydroxy-6-octyl-4-phenylpiperidin-2-one] | 0.15
O=C1C[C@@H](CCCc2ccccc2)C[C@@H](c2ccccc2)N1O (relative stereo) [1(ddd), cis-1-Hydroxy-6-phenyl-4-(3-phenylpropyl)-piperidin-2-one] | 4.2
O=C1C[C@@H](CCCc2ccccc2)C[C@H](c2ccccc2)N1O (relative stereo) [1(eee), trans-1-Hydroxy-6-phenyl-4-(3-phenylpropyl)-piperidin-2-one] | 3
O=C1C[C@@H](c2ccccc2)C[C@@H](CCCc2ccccc2)N1O (relative stereo) [1(j), cis-1-hydroxy-4-phenyl-6-(3-phenylpropyl)-piperidin-2-one] | 0.28
CCCCCCCCCC[C@@H]1C[C@H](Cc2ccccc2)CC(=O)N1O (relative stereo) [1(jj), cis-4-Benzyl-6-decyl-1-hydroxy-piperidin-2-one] | 0.25
O=C1C[C@@H](c2ccccc2)C[C@H](CCCc2ccccc2)N1O (relative stereo) [1(k), trans-1-hydroxy-4-phenyl-6-(3-phenylpropyl)-piperidin-2-one] | 0.39
CCCCCCCCCC[C@H]1C[C@H](Cc2ccccc2)CC(=O)N1O (relative stereo) [1(kk), trans-4-Benzyl-6-decyl-1-hydroxy-piperidin-2-one] | 0.4
O=C1C[C@H](c2ccccc2)C[C@H](CCCCCCCc2ccccc2)N1O (relative stereo) [1(l), cis-1-hydroxy-4-phenyl-6-(7-pheylheptyl)-iperidin-2-one] | 0.5
O=C1C[C@@H](c2ccccc2)C[C@H](CCCCCCCc2ccccc2)N1O (relative stereo) [1(m), trans-1-hydroxy-4-phenyl-6-(7-phenylheptyl)-piperidin-2-one] | 0.2
CCCCCCCC[C@@H]1C[C@H](c2cccc3ccccc23)CC(=O)N1O (relative stereo) [1(n), cis-1-hydroxy-4-(1-naphthyl)-6-octylpiperidin-2-one] | 0.7
CCCCCCCC[C@H]1C[C@H](c2cccc3ccccc23)CC(=O)N1O (relative stereo) [1(o), trans-1-hydroxy-4-(1-naphthyl)-6-octylpiperidin-2-one] | 0.13
CCCCCCCC[C@@H]1C[C@H](c2ccc3ccccc3c2)CC(=O)N1O (relative stereo) [1(p), cis-1-hydroxy-4-(2-naphthyl)-6-octylpiperidin-2-one] | 0.09
CCCCCCCC[C@H]1C[C@H](c2ccc3ccccc3c2)CC(=O)N1O (relative stereo) [1(q), trans-1-hydroxy-4-(2-naphthyl)-6-octylpiperidin-2-one] | 0.1
CCCCCCCCC[C@@H]1CC(=O)N(O)C[C@@H]1c1ccccc1 (relative stereo) [1(ss), cis-1-Hydroxy-4-nonyl-5-phenyl-piperidin-2-one] | 0.4
O=C1[C@@H](CCCc2ccccc2)[C@@H](c2ccccc2)CCN1O (relative stereo) [1(t), cis-1-hydroxy-4-phenyl-3-(3-phenylpropyl)-piperidin-2-one] | 0.9
O=C1[C@@H](CCCc2ccccc2)[C@H](c2ccccc2)CCN1O (relative stereo) [1(u), trans-1-hydroxy-4-phenyl-3-(3-phenylpropyl)-piperidin-2-one] | 1.5

More lines, now with the values ahead:

IC50 [µM] | Structure (SMILES)
0.8 | CCCCCCCCCCCC[C@@H]1[C@H](c2ccccc2)CCC(=O)N1O (relative stereo) [1(aa), cis-6-Dodecyl-1-hydroxy-5-phenyl-piperidin-2-one]
0.6 | CCCCCCCCCC[C@@H]1C[C@H](c2ccccc2)CC(=O)N1O (relative stereo) [1(b), cis-1-hydroxy-6-decyl-4-phenyl-piperidin-2-one]
2 | CCCCCCCCCCCCCC[C@H]1[C@H](c2ccccc2)CCC(=O)N1O (relative stereo) [1(bb), trans-1-Hydroxy-5-phenyl-6-tetradecyl-piperidin-2-one]
0.7 | CCCCCCCCCC[C@H]1C[C@H](c2ccccc2)CC(=O)N1O (relative stereo) [1(c), trans-1-hydroxy-6-decyl-4-phenyl-piperidin-2-one]
0.74 | CCCCCCCCCCCCCC[C@@H]1[C@H](c2ccccc2)CCC(=O)N1O (relative stereo) [1(cc), cis-1-Hydroxy-5-phenyl-6-tetradecyl-piperidin-2-one]
0.3 | CCCCCCCCCCCC[C@@H]1C[C@H](c2ccccc2)CC(=O)N1O (relative stereo) [1(d), cis-1-hydroxy-6-dodecyl-4-phenyl-piperidine-2-one]
0.5 | CCCCCCCCCCCC[C@H]1C[C@H](c2ccccc2)CC(=O)N1O (relative stereo) [1(e), trans-1-hydroxy-6-dodecyl-4-phenylpiperidin-2-one]
0.3 | CCCCCCCCCCCCCC[C@@H]1C[C@H](c2ccccc2)CC(=O)N1O (relative stereo) [1(f), cis-1-hydroxy-4-phenyl-6-tetradecyl-piperidin-2-one]
0.4 | CCCCCCCCCCCCCC[C@H]1C[C@H](c2ccccc2)CC(=O)N1O (relative stereo) [1(g), trans-1-hydroxy-4-phenyl-6-tetradecyl-piperidine-2-one]
> 10 | CCCCCCCCCCCCCCCCCC[C@@H]1C[C@H](c2ccccc2)CC(=O)N1O (relative stereo) [1(h), cis-1-hydroxy-6-octadecyl-4-phenylpiperidin-2-one]
10 | CCCCCCCCCCCCCCCCCC[C@H]1C[C@H](c2ccccc2)CC(=O)N1O (relative stereo) [1(i), trans-1-hydroxy-6-octadecyl-4-phenylpiperidin-2-one]
0.8 | CCCCCCCCCCCC[C@@H]1C[C@H](Cc2ccccc2)CC(=O)N1O (relative stereo) [1(ll), cis-4-Benzyl-6-dodecyl-1-hydroxy-piperidin-2-one]
0.8 | CCCCCCCCCCCC[C@H]1C[C@H](Cc2ccccc2)CC(=O)N1O (relative stereo) [1(mm), trans-4-Benzyl-6-dodecyl-1-hydroxy-piperidin-2-one]
0.4 | CCCCCCCCCCCCCC[C@@H]1C[C@H](Cc2ccccc2)CC(=O)N1O (relative stereo) [1(nn), cis-4-Benzyl-1-hydroxy-6-tetradecyl-piperidin-2-one]
0.7 | CCCCCCCCCCCCCC[C@H]1C[C@H](Cc2ccccc2)CC(=O)N1O (relative stereo) [1(oo), trans-4-Benzyl-1-hydroxy-6-tetradecyl-piperidin-2-one]
0.8 | CCCCCCCCCCCC[C@@H]1C(=O)N(O)CC[C@@H]1c1ccccc1 (relative stereo) [1(r), cis-1-hydroxy-4-phenyl-3-dodecylpiperidin-2-one]
0.7 | CCCCCCCCCCCC[C@@H]1C(=O)N(O)CC[C@H]1c1ccccc1 (relative stereo) [1(s), trans-1-hydroxy-4-phenyl-3-dodecylpiperidin-2-one]
0.6 | CCCCCCCCC[C@@H]1CC(=O)N(O)C[C@H]1c1ccccc1 (relative stereo) [1(tt), trans-1-Hydroxy-4-nonyl-5-phenyl-piperidin-2-one]
1 | CCCCCCCCCC[C@@H]1CC[C@H](c2ccccc2)C(=O)N1O (relative stereo) [1(v), cis-6-Decyl-1-hydroxy-3-phenyl-piperidin-2-one]

Source: patent US5292884A, “Cyclic hydroxamic acids” (Biomide Investment Limited Partnership, priority 1992, dated 1994)
